{
  "source": "patent US20210030005A1",
  "about": "“BENZOXABOROLE COMPOSITIONS HAVING A GROWTH ENHANCING EFFECT” (BORAGEN, INC., priority 2018, published 2021)",
  "type_in_all_cases": "in vivo",
  "key": {"spring wheat": {"test_system": "spring wheat", "assay": "Soil drench growth enhancing effect, spring wheat", "settings": "for Average Dry Matter Weight / Average Root Length / Average Shoot Height: 4 treatments every 14 days, 14 days after final treatment", "protocol": "(§1) Boron-containing compounds/compositions were applied directly to the soil, and the growth of plants was measured. An exemplary embodiment of a benzoxaborole compound includes 5-chlorobenzo[c][1,2]oxaborol-1(3H)-ol, which may be referred to herein as BAG8.\n(§2) Eight 2-gallon pots were filled with steamed soil for each of the five treatments listed below:\n(§3) 3-4 seeds were planted into each pot at a depth of 1 inch and covered. All seedlings were subjected to 16 hours of daylight at ˜800 μmol/m^2/second (light intensity) provided by cool-white fluorescent lamps. Daytime temperatures were ˜25° C. and were dropped to ˜18° C. at night.\n(§4) Solutions were prepared by first dissolving the appropriate amount of benzoxaborole in ethanol or acetone then adding to distilled water. 100 mL of treatment was applied to each pot in a circular motion to evenly coat the surface of the soil. These treatments were applied every 14 days for a total of 4 treatments, including the at-planting treatment. Each pot was monitored, and 50 mL of distilled water was added to each pot when soil was dry.\n(§5) Germination and shoot height data were recorded every seven days. 14 days after the final treatment application, plants were carefully removed from each pot and final shoot length, root length, and dry matter weight were recorded.\n(§6) This experiment was conducted on red table beet, broccoli, snow pea, turnips, and spring wheat."}, "maize seeds": {"test_system": "maize seeds", "assay": "Seed treatment growth effect on maize (germination trays)", "settings": "for Mean Root Length / Mean Stem Length: suspension concentrate, 10 days", "protocol": "A sample suspension concentrate was prepared by mixing 0.8 g of Atlas G-5002L, 0.8 g ATLOX 4913, 5 g of glycerin, 50 mg of anti-foam compound, 0.178 g of xanthan gum, 89 mg of anti-microbial, 53.08 g of water, and 40 g of BAG8. […] […] The container was then shaken to evenly coat the seeds and allowed to dry overnight. Once dry, 50 seeds from each rate and 50 untreated seeds were placed in separate seed germination trays with moist paper towel. 10 days later, root and stem lengths from each seed were taken. Analysis of variance was used to examine root and stem length data and means were separated using Fisher's least significant difference at α=0.05."}, "diseased maize": {"test_system": "diseased maize", "assay": "Field trial, yield of diseased maize", "protocol": "In this example, diseased maize having Southern Rust of Maize (Puccinia polysora) was treated with BAG8, Azoxystrobin, and Boscalid. Testing was performed to assess the fungicidal effect of the compounds on Southern Rust of Maize (Puccinia polysora) and to assess the growth enhancing effect of the compounds on the diseased maize.\nMaize was planted into 6×30 ft plots and replicated four times in a randomized complete block design. Three treatments and an untreated control were tested for efficacy against Southern Rust of Maize (Puccinia polysora) and assessed for yield at the conclusion of the growing season. Foliar applications of the three treatments, BAG8 at 0.25 pounds of active ingredient per acre, azoxystrobin at 0.25 pounds of active ingredient per acre, and boscalid at 0.24 pounds of active ingredient per acre, were applied to the plots at growth stage V8. Best practices were used consistently across the test plots with regard to field conditions such as fertilization, insect control, weed control, and irrigation. Disease assessments were taken in each plot 28 days after the foliar fungicide application. At maturity, each plot was harvested using standard harvesting equipment. After shelling, the kernels were weighed at 11% moisture and yield calculations extrapolated to bushels per acre.\nAnalysis of variance (ANOVA) was used to examine disease severity data and means were separated using Fisher's least significant difference (LSD) method at α=0.05. […]"}, "snow pea": {"test_system": "snow pea", "assay": "Soil drench growth enhancing effect, snow pea", "settings": "for growth effect compared to untreated control: soil drench; for Average Dry Matter Weight / Average Root Length / Average Shoot Height: 4 treatments every 14 days, 14 days after final treatment", "protocol": "as §1, §2, §3, §4, §5, §6"}, "wheat seedlings": {"test_system": "wheat seedlings", "assay": "Soil drench treatment on wheat seedlings (perlite)", "settings": "for Mean Root Length: 10 days after germination, measured 10 days following drench", "protocol": "Sample soil drench treatments were prepared by dissolving […], 3.19 mg, or 3.99 mg of BAG8 in 67.5 mL of acetone in separate vials. Each vial was then added to 202.5 mL of water and shaken vigorously to produce a suitable sample for soil drench treatment at rates of 75 g/A, 100 g/A, and 125 g/A, respectively.\nWheat seeds were sown into pots filled with perlite growth medium and allowed to germinate under normal glass house conditions. 10 days after germination the pots were drenched with the respective BAG8 solutions. 10 days following the drench, root and stem lengths were measured. Analysis of variance was used to examine root length data and means were separated using Fisher's least significant difference at α=0.05."}, "[1]": {"settings": "treatment B, 0.12 lb/A soil drench"}, "[2]": {"settings": "treatment C, 0.25 lb/A soil drench"}, "[3]": {"settings": "treatment D, 0.35 lb/A soil drench"}, "[4]": {"settings": "treatment E, 0.60 lb/A soil drench"}, "[5]": {"settings": "all tested application rates, maize seed treatment"}},
  "data": [
    {"smiles": "OB1OCc2cc(Cl)ccc21", "note": "[BAG8, 5-chlorobenzo[c][1,2]oxaborol-1(3H)-ol]", "values": [
      {"measurement": "growth effect compared with untreated control", "setting": "spring wheat; all rates (0.12-0.60 lb/A), soil drench", "value": "longer shoots, longer roots, and greater dry matter weight than the untreated control"},
      {"measurement": "increase in final dry matter weight of wheat", "setting": "spring wheat; applied at 0.12 and 0.25 pounds per acre, soil drench", "value": "~250", "unit": "%"},
      {"measurement": "Average Dry Matter Weight", "setting": "spring wheat; [1]", "value": 1204.30, "unit": "mg"},
      {"measurement": "Average Root Length", "setting": "spring wheat; [1]", "value": 21.30, "unit": "cm"},
      {"measurement": "Average Shoot Height", "setting": "spring wheat; [1]", "value": 39.50, "unit": "cm"},
      {"measurement": "Average Dry Matter Weight", "setting": "spring wheat; [2]", "value": 1123.60, "unit": "mg"},
      {"measurement": "Average Root Length", "setting": "spring wheat; [2]", "value": 24.40, "unit": "cm"},
      {"measurement": "Average Shoot Height", "setting": "spring wheat; [2]", "value": 39.70, "unit": "cm"},
      {"measurement": "Average Dry Matter Weight", "setting": "spring wheat; [3]", "value": 640.20, "unit": "mg"},
      {"measurement": "Average Root Length", "setting": "spring wheat; [3]", "value": 20.40, "unit": "cm"},
      {"measurement": "Average Shoot Height", "setting": "spring wheat; [3]", "value": 37.50, "unit": "cm"},
      {"measurement": "Average Dry Matter Weight", "setting": "spring wheat; [4]", "value": 649.70, "unit": "mg"},
      {"measurement": "Average Root Length", "setting": "spring wheat; [4]", "value": 22.00, "unit": "cm"},
      {"measurement": "Average Shoot Height", "setting": "spring wheat; [4]", "value": 39.90, "unit": "cm"},
      {"measurement": "increased root length relative to untreated control", "setting": "maize seeds; [5]", "value": "49-70%"},
      {"measurement": "increased stem length relative to untreated control", "setting": "maize seeds; [5]", "value": "54-75%"},
      {"measurement": "Mean Root Length", "setting": "maize seeds; seed treatment 0.25 lb ai/A", "value": 122.0, "unit": "mm"},
      {"measurement": "Mean Stem Length", "setting": "maize seeds; seed treatment 0.25 lb ai/A", "value": 141.0, "unit": "mm"},
      {"measurement": "Mean Root Length", "setting": "maize seeds; seed treatment 0.50 lb ai/A", "value": 110.2, "unit": "mm"},
      {"measurement": "Mean Stem Length", "setting": "maize seeds; seed treatment 0.50 lb ai/A", "value": 124.5, "unit": "mm"},
      {"measurement": "Mean Root Length", "setting": "maize seeds; seed treatment 0.75 lb ai/A", "value": 125.1, "unit": "mm"},
      {"measurement": "Mean Stem Length", "setting": "maize seeds; seed treatment 0.75 lb ai/A", "value": 136.5, "unit": "mm"},
      {"measurement": "increased yield relative to untreated control", "setting": "diseased maize; 0.25 lb ai/A foliar", "value": 194, "unit": "%"},
      {"measurement": "Yield", "setting": "diseased maize; 0.25 lb ai/A foliar at V8, harvest at maturity, 11% moisture", "value": 146.2, "unit": "a bu/A"},
      {"measurement": "growth effect compared to untreated control", "setting": "snow pea; 0.25 pounds per acre", "value": "increased the shoot height, root length, and dry matter weight"},
      {"measurement": "growth effect compared to untreated control", "setting": "snow pea; rates other than 0.25 pounds per acre", "value": "does not increase average shoot height, average root length, or average dry matter weight"},
      {"measurement": "Average Dry Matter Weight", "setting": "snow pea; [1]", "value": 102.70, "unit": "mg"},
      {"measurement": "Average Root Length", "setting": "snow pea; [1]", "value": 7.10, "unit": "cm"},
      {"measurement": "Average Shoot Height", "setting": "snow pea; [1]", "value": 6.90, "unit": "cm"},
      {"measurement": "Average Dry Matter Weight", "setting": "snow pea; [2]", "value": 280.10, "unit": "mg"},
      {"measurement": "Average Root Length", "setting": "snow pea; [2]", "value": 12.10, "unit": "cm"},
      {"measurement": "Average Shoot Height", "setting": "snow pea; [2]", "value": 13.10, "unit": "cm"},
      {"measurement": "Average Dry Matter Weight", "setting": "snow pea; [3]", "value": 185.70, "unit": "mg"},
      {"measurement": "Average Root Length", "setting": "snow pea; [3]", "value": 8.00, "unit": "cm"},
      {"measurement": "Average Shoot Height", "setting": "snow pea; [3]", "value": 9.40, "unit": "cm"},
      {"measurement": "Average Dry Matter Weight", "setting": "snow pea; [4]", "value": 130.90, "unit": "mg"},
      {"measurement": "Average Root Length", "setting": "snow pea; [4]", "value": 7.90, "unit": "cm"},
      {"measurement": "Average Shoot Height", "setting": "snow pea; [4]", "value": 6.50, "unit": "cm"},
      {"measurement": "increased root length relative to untreated control", "setting": "wheat seedlings; all tested application rates, soil drench, wheat seedlings", "value": "27-45%"},
      {"measurement": "Mean Root Length", "setting": "wheat seedlings; soil drench 75 g ai/A", "value": 580.4, "unit": "mm"},
      {"measurement": "Mean Root Length", "setting": "wheat seedlings; soil drench 100 g ai/A", "value": 524.2, "unit": "mm"},
      {"measurement": "Mean Root Length", "setting": "wheat seedlings; soil drench 125 g ai/A", "value": 507.0, "unit": "mm"}
    ]}
  ]
}
